What was measured:
[1] = test system: AIA transgenic TNF-luc mice; assay: adjuvant-induced arthritis in transgenic TNF-luc mice (swelling, scores, weight, HE staining); assay type: in vivo, BALB/c transgenic TNF-luc mice; design: right ankle swelling / left ankle swelling / left toe swelling / right toe swelling / changes of weight (added value): unit not given here; details: Adalimumab 8 mg/kg
Procedure: 8 animals are randomly divided into 4 groups (n=2), a normal group, a model group, a positive drug group and a test group. On day 0, the initial left and right ankle thicknesses, initial left and right foot palm thicknesses and initial left and right toe thicknesses of each group of mice are measured. On day 0, 50 μL/mouse complete Freund's adjuvant is injected into the bottom of the left toe of each group of mice, and the treatment is started after secondary inflammation appears in the right foot of each group of mice on day 17. On day 17, the normal group and the model group are hypodermically injected with 0.9% normal saline (0.2 mL/20 g of body weight), once every 2 days, 7 times in total. The positive drug Adalimumab group is hypodermically injected with Adalimumab (8 mg/kg of body weight), once every 15 days, once in total. The test group is hypodermically injected with mPEG-SC20k-HM-3 (20 mg/kg of body weight), once every 2 days, 7 times in total. The treatment lasts for 15 days. Then, medication is stopped for observation for one week, and the mice are killed one week later.
On day 0, the initial ankle widths, foot palm widths and toe thicknesses of left and right feet are measured with a vernier caliper as initial values. Every 2 days, the left and right ankle widths, foot palm widths and toe thicknesses of each group of mice are measured separately with the vernier caliper, and compared with the initial values to calculate the changes in the swelling degree.
The joints of the mouse paw are observed with naked eyes, and the joints are scored every 2 days from day 17. Scoring is performed in terms of level 0 to level 4, 5 levels in total.
After the secondary inflammation appears, systemic scoring is performed every 2 days.
Changes of expression of TNF-α and IL-6 are analyzed by HE staining and immunohistochemistry in the ankle joint, spleen and thymus of the mice. Observation and photographing are performed under the FOVs of ×200 and ×400 times respectively, 5 FOVs are taken randomly for each picture, and data statistics is performed.

[2] = test system: TNF-α; assay: immunohistochemistry of TNF-α in ankle joints, CIA transgenic TNF-luc mice; assay type: in vivo, BALB/c transgenic TNF-luc mice; details: Adalimumab 8 mg/kg, mPEG-SC20k-HM-3 20 mg/kg
Procedure: Determining criteria: The experimental results are determined based on the proportion of positive cells in all tissue cells and the staining intensity of positive cells: A: scoring is performed based on the number of chromogenic cells, 1 point is given when the proportion of the number of positive cells is less than ⅓, 2 points are given when the proportion of the number of positive cells is ⅓-⅔, and 3 points are given when the proportion of the number of positive cells is greater than or equal to ⅔. B: Based on the color depth of cells, 0 point is given when no cells have positive reaction, 1 point is given when cells are light yellow, 2 points are given when the cells are light brown, and 3 points are given when the cells are dark brown. Point product=A×B. The result is expressed in point product.

[3] = 0 d, before treatment (starts day 17), mPEG-SC20k-HM-3 20 mg/kg groups
[4] = 1 d, before treatment (starts day 17), mPEG-SC20k-HM-3 20 mg/kg groups
[5] = 3 d, before treatment (starts day 17), mPEG-SC20k-HM-3 20 mg/kg groups
[6] = 6 d, before treatment (starts day 17), mPEG-SC20k-HM-3 20 mg/kg groups
[7] = 9 d, before treatment (starts day 17), mPEG-SC20k-HM-3 20 mg/kg groups
[8] = 12 d, before treatment (starts day 17), mPEG-SC20k-HM-3 20 mg/kg groups
[9] = 16 d, before treatment (starts day 17), mPEG-SC20k-HM-3 20 mg/kg groups
[10] = 17 d (treatment starts), mPEG-SC20k-HM-3 20 mg/kg sc
[11] = 19 d, mPEG-SC20k-HM-3 20 mg/kg sc
[12] = 20 d, mPEG-SC20k-HM-3 20 mg/kg sc
[13] = 22 d, mPEG-SC20k-HM-3 20 mg/kg sc
[14] = 23 d, mPEG-SC20k-HM-3 20 mg/kg sc
[15] = 25 d, mPEG-SC20k-HM-3 20 mg/kg sc
[16] = 26 d, mPEG-SC20k-HM-3 20 mg/kg sc
[17] = 28 d, mPEG-SC20k-HM-3 20 mg/kg sc
[18] = 29 d, mPEG-SC20k-HM-3 20 mg/kg sc
[19] = 31 d, mPEG-SC20k-HM-3 20 mg/kg sc
[20] = 32 d, mPEG-SC20k-HM-3 20 mg/kg sc

Substance: Adalimumab [reference compound]
- changes of weight (added value) [1, 3]: 0.00 ± 0.00
- left ankle swelling [1, 3]: 0.000 ± 0.000
- left foot (palm) swelling [1, 3]: 0.000 ± 0.000
- left toe swelling [1, 3]: 0.000 ± 0.000
- left ankle swelling [1, 4]: 0.239 ± 0.033
- left foot (palm) swelling [1, 4]: 0.236 ± 0.062
- left toe swelling [1, 4]: 0.326 ± 0.028
- changes of weight (added value) [1, 5]: 0.07 ± 0.15
- left ankle swelling [1, 5]: 0.262 ± 0.071
- left foot (palm) swelling [1, 5]: 0.289 ± 0.016
- left toe swelling [1, 5]: 0.323 ± 0.086
- changes of weight (added value) [1, 6]: 0.09 ± 0.54
- left ankle swelling [1, 6]: 0.226 ± 0.023
- left foot (palm) swelling [1, 6]: 0.272 ± 0.057
- left toe swelling [1, 6]: 0.272 ± 0.076
- changes of weight (added value) [1, 7]: 0.07 ± 0.25
- left ankle swelling [1, 7]: 0.260 ± 0.020
- left foot (palm) swelling [1, 7]: 0.302 ± 0.003
- left toe swelling [1, 7]: 0.298 ± 0.122
- changes of weight (added value) [1, 8]: 0.25 ± 0.83
- left ankle swelling [1, 8]: 0.264 ± 0.018
- left foot (palm) swelling [1, 8]: 0.295 ± 0.021
- left toe swelling [1, 8]: 0.328 ± 0.079
- changes of weight (added value) ([1]; 15 d, before treatment (starts day 17), mPEG-SC20k-HM-3 20 mg/kg groups): 0.16 ± 0.66
- left ankle swelling [1, 9]: 0.265 ± 0.021
- left foot (palm) swelling [1, 9]: 0.271 ± 0.064
- left toe swelling [1, 9]: 0.328 ± 0.065
- right ankle swelling [1, 9]: 0.010 ± 0.006
- right foot palm swelling [1, 9]: 0.010 ± 0.006
- right toe swelling [1, 9]: 0.011 ± 0.033
- joint index score [1, 10]: 7.50 ± 0.70
- whole body (systemic) score [1, 10]: 7.00 ± 1.40
- changes of weight (added value) [1, 11]: 0.44 ± 0.60
- left ankle swelling [1, 11]: 0.254 ± 0.018
- left foot (palm) swelling [1, 11]: 0.247 ± 0.078
- left toe swelling [1, 11]: 0.311 ± 0.033
- right ankle swelling [1, 11]: 0.010 ± 0.014
- right foot palm swelling [1, 11]: 0.029 ± 0.001
- right toe swelling [1, 11]: 0.012 ± 0.037
- joint index score [1, 12]: 7.50 ± 0.70
- whole body (systemic) score [1, 12]: 6.50 ± 2.10
- changes of weight (added value) [1, 13]: 0.62 ± 0.48
- left ankle swelling [1, 13]: 0.235 ± 0.013
- left foot (palm) swelling [1, 13]: 0.249 ± 0.126
- left toe swelling [1, 13]: 0.248 ± 0.136
- right foot palm swelling [1, 13]: 0.004 ± 0.003
- right toe swelling [1, 13]: 0.002 ± 0.042
- joint index score [1, 14]: 8.00 ± 0.00
- whole body (systemic) score [1, 14]: 4.50 ± 2.10
- changes of weight (added value) [1, 15]: 0.55 ± 0.02
- left ankle swelling [1, 15]: 0.218 ± 0.028
- left foot (palm) swelling [1, 15]: 0.234 ± 0.040
- left toe swelling [1, 15]: 0.309 ± 0.058
- right foot palm swelling [1, 15]: 0.013 ± 0.016
- right toe swelling [1, 15]: 0.004 ± 0.040
- joint index score [1, 16]: 6.50 ± 0.70
- whole body (systemic) score [1, 16]: 4.00 ± 1.40
- changes of weight (added value) [1, 17]: 0.77 ± 0.33
- left foot (palm) swelling [1, 17]: 0.258 ± 0.042
- left toe swelling [1, 17]: 0.285 ± 0.075
- right foot palm swelling [1, 17]: 0.008 ± 0.006
- right toe swelling [1, 17]: 0.009 ± 0.035
- joint index score [1, 18]: 6.50 ± 0.70
- whole body (systemic) score [1, 18]: 4.00 ± 1.40
- changes of weight (added value) [1, 19]: 1.02 ± 0.98
- left foot (palm) swelling [1, 19]: 0.235 ± 0.061
- left toe swelling [1, 19]: 0.290 ± 0.023
- right foot palm swelling [1, 19]: 0.010 ± 0.003
- right toe swelling [1, 19]: 0.003 ± 0.021
- joint index score [1, 20]: 6.50 ± 0.70
- whole body (systemic) score [1, 20]: 3.50 ± 0.70
- HE staining of ankle joints: pathological symptoms vs model group ([1]; mPEG-SC20k-HM-3 20 mg/kg): relieved to some extent
- immunohistochemical score of TNF-α in ankle joint cavity [2]: 0.160±0.109

— patent US20220202912A1, “Polypeptides in Preparation of Drugs for Treatment or Prevention of Rheumatoid Arthritis” (priority 2011, published 2022)
